Among the test systems are UACC-62 melanoma; SK-MEL-5 melanoma; SNB-75 CNS; HT29 colon; CAKI-1 renal; OVCAR-8 ovarian; HOP-62 NSCLC; U251 CNS; EKVX NSCLC; HOP-92 NSCLC.
Common to all, as to experiment: NCI tumour cell line growth inhibition, 48 h

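1) Cells in 96-well plates. 2) Compound, 48 h, 5 concentrations. 3) Linear interpolation between surrounding doses. 4) Unreached endpoint = highest concentration. The concentration for 50% growth inhibition is given as GI50. TGI denotes the concentration required for complete inhibition of growth.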

For `NC(=S)N/N=C/c1ccc(OC(=O)COc2ccccc2)cn1`, the GI50 is 4.67 µM in the assay with UACC-62 melanoma; 3.12 µM with SK-MEL-5 melanoma; 10.4 µM with SNB-75 CNS; 39 µM with HT29 colon; 4.01 µM in the assay on CAKI-1 renal; 3.26 µM in the assay with OVCAR-8 ovarian. For the same molecule, the GI50 in the assay with HOP-62 NSCLC is 11.1 µM; in the assay with U251 CNS, 4.15 µM; with EKVX NSCLC, 40 µM. Further, the TGI is > 100 µM with UACC-62 melanoma; 29.1 µM in the assay with SK-MEL-5 melanoma; > 100 µM in the assay on SNB-75 CNS; > 100 µM in the assay on HT29 colon; > 100 µM in the assay with CAKI-1 renal; > 100 µM with OVCAR-8 ovarian. The TGI in the assay on HOP-62 NSCLC was 80.8 µM; in the assay on U251 CNS, > 100 µM; in the assay on EKVX NSCLC, > 100 µM.

In the case of `O=C(Nc1ccccc1[N+](=O)[O-])C(=O)C(C(=O)c1ccccc1-c1ccccc1)C1OC(=O)c2ccccc21` (stereo not given), the TGI with UACC-62 melanoma was 32.8 µM; with SK-MEL-5 melanoma it was 32.7 µM; in the assay with SNB-75 CNS it was 53.4 µM; in the assay with HT29 colon, 59.2 µM; in the assay on CAKI-1 renal it was > 100 µM; in the assay on OVCAR-8 ovarian, 44.1 µM. Further, the figures for the TGI with HOP-62 NSCLC, in the assay with U251 CNS and in the assay with EKVX NSCLC were 36 µM, 24.2 µM and 51 µM, respectively.

For `O=C(Nc1nc(-c2ccccc2)cs1)c1cc(O)c(O)c(O)c1`, the GI50 in the assay on UACC-62 melanoma is 3.02 µM; in the assay with SK-MEL-5 melanoma, 3.6 µM; with SNB-75 CNS, 1.92 µM; in the assay on HT29 colon it was 5.95 µM; with HOP-92 NSCLC it was 1.56 µM; in the assay on CAKI-1 renal, 1.42 µM. For the same molecule, the GI50 in the assay with OVCAR-8 ovarian is 3.38 µM; in the assay on HOP-62 NSCLC, 5.73 µM; in the assay with U251 CNS it was 2.88 µM. Besides, the TGI was 16.5 µM in the assay on UACC-62 melanoma; 20.7 µM in the assay on SK-MEL-5 melanoma; > 100 µM with SNB-75 CNS; 44.1 µM in the assay with HT29 colon; 9.66 µM with HOP-92 NSCLC; 16.6 µM with CAKI-1 renal. Also, the TGI with OVCAR-8 ovarian is > 100 µM; with HOP-62 NSCLC, 30.6 µM; in the assay on U251 CNS, 21 µM.

With `C=C(CN(C)Cc1ccccc1)c1ccc(C(=O)Nc2ccccc2N)cc1`, the GI50 in the assay with UACC-62 melanoma was 2.16 µM; with SK-MEL-5 melanoma it was 6.72 µM; in the assay with HOP-92 NSCLC, 3.36 µM; with CAKI-1 renal it was 3.43 µM; in the assay on OVCAR-8 ovarian, 1.56 µM; in the assay with HOP-62 NSCLC, 3.61 µM. Besides, the values for the GI50 with U251 CNS and in the assay with EKVX NSCLC were 3.34 µM and 8.17 µM, respectively. The TGI was 18.4 µM in the assay on UACC-62 melanoma; 14.6 µM in the assay with SK-MEL-5 melanoma; 24.5 µM with HOP-92 NSCLC; 14.8 µM with CAKI-1 renal; 14.4 µM in the assay on OVCAR-8 ovarian; > 50 µM in the assay with HOP-62 NSCLC. The TGI worked out at 13.8 µM in the assay with U251 CNS and 37.9 µM in the assay on EKVX NSCLC.

Consider `CCCC(=O)O[C@]1(C)CC[C@@H]2[C@H]3[C@@H]1[C@@H]1C/C(C)=C\CC[C@](C)(OC(=O)[C@@H]2C)[C@H]3O1`, for which the GI50 with UACC-62 melanoma is 24.4 µM; in the assay on SK-MEL-5 melanoma, 13.4 µM; in the assay with SNB-75 CNS, > 100 µM; in the assay with HT29 colon it was 32.1 µM; in the assay on CAKI-1 renal, 31.7 µM; in the assay on OVCAR-8 ovarian it was 47.6 µM. For the same molecule, the values for the GI50 in the assay on HOP-62 NSCLC, in the assay with U251 CNS and in the assay with EKVX NSCLC were 60.3 µM, 41.8 µM and 68.3 µM, respectively. Besides, the TGI with UACC-62 melanoma is > 100 µM; with SK-MEL-5 melanoma, 33.1 µM; with SNB-75 CNS, > 100 µM; in the assay on HT29 colon it was > 100 µM; in the assay on CAKI-1 renal, > 100 µM; in the assay with OVCAR-8 ovarian, > 100 µM. Further, the TGI with HOP-62 NSCLC, in the assay on U251 CNS and in the assay on EKVX NSCLC was > 100 µM in each case.

On to `CCOC(=O)C1=C(C)N(NC(=O)OC)C2(N)N(NC(=O)OC)C(C)=C(C(=O)OCC)C12C#N` (stereo not given), for which the TGI with UACC-62 melanoma, with SK-MEL-5 melanoma, in the assay on SNB-75 CNS, in the assay with HT29 colon, in the assay with CAKI-1 renal and in the assay with OVCAR-8 ovarian was > 100 µM in each case. The TGI in the assay on HOP-62 NSCLC, in the assay on U251 CNS and in the assay on EKVX NSCLC was > 100 µM in each case.

Take `CCOc1ccc2c(c1)C(=O)c1c-2n(CCCN)c(=O)c2cc([N+](=O)[O-])ccc12`: the GI50 with UACC-62 melanoma was 0.0768 µM; with SK-MEL-5 melanoma, 0.0771 µM; in the assay on HT29 colon it was 0.126 µM; in the assay with HOP-92 NSCLC, 0.0969 µM; in the assay with CAKI-1 renal it was 0.0112 µM; in the assay with OVCAR-8 ovarian, 0.0168 µM. Further, the values for the GI50 in the assay with HOP-62 NSCLC, in the assay with U251 CNS and with EKVX NSCLC were < 0.0108 µM, 0.0103 µM and 1.19 µM, respectively. Further, the TGI came out at 1.82 µM with UACC-62 melanoma; 0.417 µM in the assay on SK-MEL-5 melanoma; 1.12 µM in the assay with HT29 colon; 1.91 µM with HOP-92 NSCLC; 1.14 µM in the assay with CAKI-1 renal; 0.147 µM with OVCAR-8 ovarian. The TGI in the assay with HOP-62 NSCLC was 1.22 µM; with U251 CNS, 1.22 µM; in the assay on EKVX NSCLC, 2.57 µM.

`COc1ccccc1Nc1nc2ccccc2c2occc12`: the GI50 in the assay with UACC-62 melanoma is 10.1 µM; with SK-MEL-5 melanoma, 12.2 µM; in the assay with HOP-92 NSCLC, 24.1 µM; with CAKI-1 renal it was 18 µM; with OVCAR-8 ovarian, 17.6 µM; in the assay on HOP-62 NSCLC, 24.5 µM. For the same molecule, the GI50 with U251 CNS is 14.5 µM; in the assay with EKVX NSCLC, 11.9 µM. Also, the TGI is 26.4 µM in the assay on UACC-62 melanoma; 27.7 µM in the assay on SK-MEL-5 melanoma; > 50 µM in the assay on HOP-92 NSCLC; > 50 µM in the assay with CAKI-1 renal; > 50 µM with OVCAR-8 ovarian; > 50 µM with HOP-62 NSCLC. The TGI in the assay on U251 CNS is > 50 µM; in the assay on EKVX NSCLC, 28.1 µM.

For the molecule `O=c1oc2c(cc1-c1ccccc1)C(O)Oc1ccccc1-2` (stereo not given), the GI50 with UACC-62 melanoma is 12.8 µM; with SK-MEL-5 melanoma, 3.8 µM; in the assay on SNB-75 CNS, 3.54 µM; in the assay on HT29 colon, 3.21 µM; in the assay with CAKI-1 renal, 5.09 µM; in the assay with OVCAR-8 ovarian, 6.89 µM. In addition, the GI50 in the assay on HOP-62 NSCLC is 10.3 µM; in the assay with U251 CNS, 7.92 µM; in the assay on EKVX NSCLC it was 28.1 µM. In addition, the TGI was 39.7 µM in the assay with UACC-62 melanoma; 16.5 µM in the assay with SK-MEL-5 melanoma; 29 µM with SNB-75 CNS; > 100 µM in the assay on HT29 colon; > 100 µM with CAKI-1 renal; > 100 µM in the assay on OVCAR-8 ovarian. Moreover, the values for the TGI in the assay with HOP-62 NSCLC, in the assay with U251 CNS and in the assay on EKVX NSCLC were 78.8 µM, > 100 µM and > 100 µM, respectively.

Values taken from PubChem BioAssay (NCI).
